Measurements: patent publication US20220213078A1, “MODULATORS OF THE INTEGRATED STRESS RESPONSE PATHWAY” (EVOTEC INTERNATIONAL GMBH, priority 2019, published 2022)

system: Tunicamycin induced ISR (ATF4) in wild-type HEK293 cells; test: HEK-ATF4 High Content Imaging assay (prevention of Tunicamycin induced ISR, ATF4 nucleus/cytoplasm signal ratio); assay type: cell-based; conditions: Homo sapiens, 6 hrs incubation, ATF4 immunofluorescence
Method: HEK-ATF4 High Content Imaging Assay
Example compounds were tested in the HEK-ATF4 High Content Imaging assay to assess their pharmacological potency to prevent Tunicamycin induced ISR. Wild-type HEK293 cells were plated in 384-well imaging assay plates at a density of 12,000 cells per well in growth medium (containing DMEM/F12, 10% FBS, 2 mM L-Glutamine, 100 U/mL Penicillin—100 μg/mL Streptomycin) and incubated at 37° C., 5% CO2. 24-hrs later, the medium was changed to 50 μl assay medium per well (DMEM/F12, 0.3% FBS, 2 mM L-Glutamine, 100 U/mL Penicillin—100 μg/mL Streptomycin). Example compounds were serially diluted in dimethyl sulfoxide (DMSO), spotted into intermediate plates and prediluted with assay medium containing 3.3 μM Tunicamycin to give an 11-fold excess of final assay concentration. In addition to the example compound testing area, the plates also contained multiples of control wells for assay normalization purposes, wells, containing Tunicamycin but no example compounds (High control), as well as wells containing neither example compound nor Tunicamycin (Low control). The assay was started by transferring 5 μl from the intermediate plate into the assay plates, followed by incubation for 6 hrs at 37° C., 5% CO2. Subsequently, cells were fixed (4% PFA in PBS, 20 min at room temperature) and submitted to indirect ATF4 immunofluorescence staining (primary antibody rabbit anti ATF4, clone D4B8, Cell Signaling Technologies; secondary antibody Alexa Fluor 488 goat anti-rabbit IgG (H+L), Thermofisher Scientific). Nuclei were stained using Hoechst dye (Thermofisher Scientific), and plates were imaged on an Opera Phenix High Content imaging platform equipped with 405 nm and 488 nm excitation. Finally, images were analyzed using script based algorithms. The main readout HEK-ATF4 monitored the ATF4 signal ratio between nucleus and cytoplasm. Tunicamycin induced an increase in the overall ATF4 ratio signal, which was prevented by ISR modulating example compounds. In addition, HEK-CellCount readout was derived from counting the number of stained nuclei corresponding to healthy cells. This readout served as an internal toxicity control.

Structure (SMILES)	IC50
O=C(COc1ccc(Cl)c(F)c1)N[C@@H]1CC[C@@H](c2nnc(-c3ccc(Cl)cc3)o2)OC1 [Example 1, 2-(4-chloro-3-fluoro-phenoxy)-N-[(3R,6S)-6-[5-(4-chlorophenyl)-1,3,4-oxadiazol-2-yl]tetrahydropyran-3-yl]acetamide]	1 to 500 nM
O=C(COc1ccc(Cl)cc1)N[C@@H]1CC[C@@H](c2nnc(-c3ccc(Cl)cc3)o2)OC1 [Example 2, 2-(4-chlorophenoxy)-N-[(3R,6S)-6-[5-(4-chlorophenyl)-1,3,4-oxadiazol-2-yl]oxan-3-yl]acetamide]	1 to 500 nM
O=C(COc1ccc(Cl)c(F)c1)N[C@@H]1CC[C@@H](c2nnc(-c3ccc(C(F)(F)F)nc3)o2)OC1 [Example 3, 2-(4-chloro-3-fluorophenoxy)-N-[(3R,6S)-6-{5-[6-(trifluoromethyl)pyridin-3-yl]-1,3,4-oxadiazol-2-yl}oxan-3-yl]acetamide]	1 to 500 nM
O=C(COc1ccc(Cl)c(F)c1)N[C@H]1CC[C@H](c2nnc(-c3ccc(Cl)cc3)o2)OC1 [Example 4, 2-(4-chloro-3-fluorophenoxy)-N-[(3S,6R)-6-[5-(4-chlorophenyl)-1,3,4-oxadiazol-2-yl]oxan-3-yl]acetamide]	1 to 500 nM
O=C(COc1ccc(Cl)c(F)c1)N[C@@H]1CC[C@@H](c2nnc(-c3ccc(C4CC4)nc3)o2)OC1 [Example 5, 2-(4-chloro-3-fluorophenoxy)-N-[(3R,6S)-6-[5-(6-cyclopropylpyridin-3-yl)-1,3,4-oxadiazol-2-yl]oxan-3-yl]acetamide]	1 to 500 nM
CCc1ccc(-c2nnc([C@@H]3CC[C@@H](NC(=O)COc4ccc(Cl)c(F)c4)CO3)o2)cn1 [Example 6, 2-(4-chloro-3-fluorophenoxy)-N-[(3R,6S)-6-[5-(6-ethylpyridin-3-yl)-1,3,4-oxadiazol-2-yl]oxan-3-yl]acetamide]	500 to 2000 nM
O=C(COc1cnc(Cl)c(F)c1)N[C@@H]1CC[C@@H](c2nnc(-c3ccc(Cl)cc3)o2)OC1 [Example 7, 2-[(6-chloro-5-fluoropyridin-3-yl)oxy]-N-[(3R,6S)-6-[5-(4-chlorophenyl)-1,3,4-oxadiazol-2-yl]oxan-3-yl]acetamide]	1 to 500 nM
O=C(COc1ccnc(C(F)(F)F)c1)N[C@@H]1CC[C@@H](c2nnc(-c3ccc(Cl)cc3)o2)OC1 [Example 8, N-[(3R,6S)-6-[5-(4-chlorophenyl)-1,3,4-oxadiazol-2-yl]oxan-3-yl]-2-{[2-(trifluoromethyl)pyridin-4-yl]oxy}acetamide]	500 to 2000 nM
O=C(COc1ccc(Cl)nc1)N[C@@H]1CC[C@@H](c2nnc(-c3ccc(Cl)cc3)o2)OC1 [Example 9, N-[(3R,6S)-6-[5-(4-chlorophenyl)-1,3,4-oxadiazol-2-yl]oxan-3-yl]-2-[(6-chloropyridin-3-yl)oxy]acetamide]	1 to 500 nM
Cc1ncc(OCC(=O)N[C@@H]2CC[C@@H](c3nnc(-c4ccc(Cl)cc4)o3)OC2)cc1F [Example 10, N-[(3R,6S)-6-[5-(4-chlorophenyl)-1,3,4-oxadiazol-2-yl]oxan-3-yl]-2-[(5-fluoro-6-methylpyridin-3-yl)oxy]acetamide]	500 to 2000 nM
O=C(COc1cnc(Cl)c(F)c1)N[C@@H]1CC[C@@H](c2nnc(-c3ccc(Cl)nc3)o2)OC1 [Example 11, 2-[(6-chloro-5-fluoropyridin-3-yl)oxy]-N-[(3R,6S)-6-[5-(6-chloropyridin-3-yl)-1,3,4-oxadiazol-2-yl]oxan-3-yl]acetamide]	2000 to 15000 nM
Cc1ccc(OCC(=O)N[C@@H]2CC[C@@H](c3nnc(-c4ccc(Cl)cc4)o3)OC2)cn1 [Example 12, N-[(3R,6S)-6-[5-(4-chlorophenyl)-1,3,4-oxadiazol-2-yl]oxan-3-yl]-2-[(6-methylpyridin-3-yl)oxy]acetamide]	2000 to 15000 nM
O=C(COc1cnc(Cl)cn1)N[C@@H]1CC[C@@H](c2nnc(-c3ccc(Cl)cc3)o2)OC1 [Example 13, N-[(3R,6S)-6-[5-(4-chlorophenyl)-1,3,4-oxadiazol-2-yl]oxan-3-yl]-2-[(5-chloropyrazin-2-yl)oxy]acetamide]	500 to 2000 nM
O=C(COc1cnc(Cl)nc1)N[C@@H]1CC[C@@H](c2nnc(-c3ccc(Cl)cc3)o2)OC1 [Example 14, N-[(3R,6S)-6-[5-(4-chlorophenyl)-1,3,4-oxadiazol-2-yl]oxan-3-yl]-2-[(2-chloropyrimidin-5-yl)oxy]acetamide]	500 to 2000 nM
Cc1ncc(OCC(=O)N[C@@H]2CC[C@@H](c3nnc(-c4ccc(Cl)cc4)o3)OC2)cc1Cl [Example 15, 2-[(5-chloro-6-methylpyridin-3-yl)oxy]-N-[(3R,6S)-6-[5-(4-chlorophenyl)-1,3,4-oxadiazol-2-yl]oxan-3-yl]acetamide]	1 to 500 nM
O=C(COc1ccc(Cl)c(F)c1)N[C@@H]1CC[C@@H](c2nnc(-c3cncc(C(F)(F)F)c3)o2)OC1 [Example 16, 2-(4-chloro-3-fluorophenoxy)-N-[(3R,6S)-6-{5-[5-(trifluoromethyl)pyridin-3-yl]-1,3,4-oxadiazol-2-yl}oxan-3-yl]acetamide]	500 to 2000 nM
O=C(COc1ccc(Cl)c(F)c1)N[C@@H]1CC[C@@H](c2nnc(-c3ccnc(C(F)(F)F)c3)o2)OC1 [Example 17, 2-(4-chloro-3-fluorophenoxy)-N-[(3R,6S)-6-{5-[2-(trifluoromethyl)pyridin-4-yl]-1,3,4-oxadiazol-2-yl}oxan-3-yl]acetamide]	1 to 500 nM
O=C(COc1ccc(C(F)(F)F)nc1)N[C@@H]1CC[C@@H](c2nnc(-c3ccc(Cl)cc3)o2)OC1 [Example 18]	1 to 500 nM
O=C(COc1cncc(C(F)(F)F)c1)N[C@@H]1CC[C@@H](c2nnc(-c3ccc(Cl)cc3)o2)OC1 [Example 19, N-[(3R,6S)-6-[5-(4-chlorophenyl)-1,3,4-oxadiazol-2-yl]oxan-3-yl]-2-{[5-(trifluoromethyl)pyridin-3-yl]oxy}acetamide]	500 to 2000 nM
